This is an account of results in ChEMBL document CHEMBL1201862, “PubChem BioAssay data set” (2004).

Common to all, as to test: growth of human tumour cells (NCI), 48 h
The subject of assay [1] is A549.
The test system of assay [2] is KM12.
In assay [3] the test system is OVCAR-4.
Assay [4] concerns TK-10.
Assay [5] has as its system CAKI-1.
Assay [6] concerns SK-MEL-5.
The subject of assay [7] is MDA-N.
In assay [8] the test system is SR.
The test system of assay [9] is RXF 393.
The test system of assay [10] is MOLT-4.
The subject of assay [11] is IGROV-1.
In assay [12] the test system is HOP-92.
For assay [13], the system named is SF-268.
In assay [14] the test system is HT-29.
Assay [15] has as its system NCI-H226.
Assay [16] has as its system NCI/ADR-RES.
The subject of assay [17] is ACHN.
Assay [18] concerns A498.
The subject of assay [19] is OVCAR-3.

Each structure is given as a SMILES string.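 Exposure lasted 48 hours, with cells grown in 96-well plates and compounds tested at five concentrations. Here, GI50 denotes the concentration required for 50% inhibition of growth.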 Calls of active or inactive are those of the source. Rule as the data show it: active = GI50 up to about 1.1 µM and inactive = higher.

Regarding `CCCC(=O)OC1=C(c2ccccc2)Sc2ccccc2-n2cccc21`, the GI50 in assay [1], in [2], in assay [3], in assay [4], in assay [5] and in assay [6] was > 10 µM (inactive) in each case. The GI50 in assay [7], in assay [8], in assay [9], in assay [10], in [11] and in [12] was > 10 µM (inactive) throughout. In addition, the GI50 in [13] and in assay [14] was > 10 µM (inactive) each time.
As to `Cc1ccccc1N/C(=C(/C(Cl)=C(Cl)Cl)[N+](=O)[O-])n1nnc2ccccc21`, the GI50 in [1] was 41.7 µM (inactive); in assay [15], 17.6 µM (inactive); in assay [2], 15.9 µM (inactive); in assay [3], 17.5 µM (inactive); in assay [16], 18.2 µM (inactive); in assay [17], 29.2 µM (inactive). In addition, the GI50 in [18] is 19.4 µM (inactive); in [5], 20.4 µM (inactive); in assay [10], > 100 µM (inactive); in assay [19] it was 16.9 µM (inactive); in [13], 15.7 µM (inactive); in assay [14] it was 19.4 µM (inactive).
Consider `O=C(Cc1ccc(O)c(O)c1)NCc1c[nH]c2ccccc12`, for which the GI50 was 64.7 µM (inactive) in [1]; 71.4 µM (inactive) in [2]; 37 µM (inactive) in assay [3]; 46.6 µM (inactive) in assay [16]; 16.4 µM (inactive) in assay [4]; > 100 µM (inactive) in assay [18]. For the same compound, the GI50 in [5] is 31.2 µM (inactive); in assay [6] it was 43.3 µM (inactive); in assay [9], 29 µM (inactive); in assay [10], 20.4 µM (inactive); in assay [19] it was 42.3 µM (inactive); in assay [12] it was > 100 µM (inactive). The GI50 in assay [13] was 37.8 µM (inactive); in [14] it was > 100 µM (inactive).
With `O=[N+]([O-])c1ccc2nnnn2c1`, the GI50 in assay [1] was 45.3 µM (inactive); in assay [15], 12.3 µM (inactive); in assay [2], 23.1 µM (inactive); in assay [3], 78.7 µM (inactive); in [16], 25.5 µM (inactive); in [4], 48.3 µM (inactive). Also, the GI50 was 10.7 µM (inactive) in assay [17]; 17.6 µM (inactive) in assay [5]; 18 µM (inactive) in assay [6]; 4.76 µM (inactive) in assay [8]; > 100 µM (inactive) in [9]; 2.62 µM (inactive) in assay [10]. Besides, the GI50 in assay [19] was 13.5 µM (inactive); in assay [11], 34.3 µM (inactive); in assay [12] it was 96.6 µM (inactive); in assay [13], 70.6 µM (inactive); in assay [14] it was 16.5 µM (inactive).
With `Cc1nc2ccccc2c(=O)n1-c1n[nH]c2ccccc12`, the GI50 in assay [1] was > 100 µM (inactive); in assay [15], 80.5 µM (inactive); in assay [2], > 100 µM (inactive); in [3], > 100 µM (inactive); in assay [16], > 100 µM (inactive); in [4], > 100 µM (inactive). The GI50 in assay [17], in [18], in assay [5], in assay [6], in [8] and in assay [9] was > 100 µM (inactive) in each case. Moreover, the GI50 in assay [10], in [19], in assay [11], in assay [12], in assay [13] and in assay [14] was > 100 µM (inactive) throughout.
In the case of `CCN(CC)C(=O)Cn1c2ccccc2[n+]2cc(N)ccc12`, the GI50 in assay [1], in assay [15], in assay [2], in assay [3], in assay [16] and in assay [4] was > 100 µM (inactive) each time. Further, the GI50 in [17], in [18], in [5], in assay [6], in assay [8] and in assay [9] was > 100 µM (inactive) throughout. For the same compound, the GI50 in assay [10], in assay [19], in assay [11], in [12], in assay [13] and in assay [14] was > 100 µM (inactive) throughout.
`Cc1cc(C)c(C#N)c(SC(=S)NC(=O)c2ccc(Cl)cc2)n1`: the GI50 in assay [1], in assay [2], in [3], in [16], in assay [4] and in assay [17] was > 100 µM (inactive) in each case. In addition, the GI50 in assay [18], in assay [5], in assay [6], in assay [9], in assay [19] and in [12] was > 100 µM (inactive) throughout. Further, the GI50 in [13] was > 100 µM (inactive).
As to `Nn1nnc2ccccc21`, the GI50 in assay [1], in [15], in [3], in assay [16], in assay [4] and in [17] was > 100 µM (inactive) each time. Besides, the GI50 in [18], in [6], in assay [8], in [10], in assay [19] and in assay [11] was > 100 µM (inactive) in each case. Further, the GI50 in assay [12], in [13] and in [14] was > 100 µM (inactive) throughout.
Consider `CCOC(=O)C[n+]1cccc(C2(c3cc4ccccc4[nH]3)OCCO2)c1`, for which the GI50 in [1], in assay [15], in assay [2], in assay [3], in assay [16] and in assay [4] was > 100 µM (inactive) in each case. For the same compound, the GI50 in assay [17], in assay [18], in [5], in assay [6], in assay [8] and in [9] was > 100 µM (inactive) each time. In addition, the GI50 in [10], in assay [19], in assay [11], in assay [12], in assay [13] and in [14] was > 100 µM (inactive) each time.
For `COc1cc2c(cc1OC)C(N)CC2=O` (stereo unspecified), the GI50 was > 100 µM (inactive) in assay [1]; 9.06 µM (inactive) in assay [15]; > 100 µM (inactive) in assay [2]; > 100 µM (inactive) in assay [3]; > 100 µM (inactive) in [16]; > 100 µM (inactive) in [4]. Besides, the GI50 in [17], in assay [18], in assay [5], in assay [6], in assay [8] and in [9] was > 100 µM (inactive) each time. For the same compound, the GI50 in assay [10], in [19], in assay [11], in [12], in assay [13] and in assay [14] was > 100 µM (inactive) each time.
As for `CN(C(=O)c1cccs1)C(=S)N1CCN(c2ccccc2)CC1`, the GI50 in [1], in assay [15], in assay [2], in assay [3], in assay [4] and in assay [17] was > 100 µM (inactive) in each case. Further, the GI50 in assay [6] was > 100 µM (inactive); in assay [7] it was > 100 µM (inactive); in assay [8], 54.2 µM (inactive); in assay [9], > 100 µM (inactive); in [10] it was 51.8 µM (inactive); in [19], > 100 µM (inactive). Moreover, the GI50 in assay [11] was > 100 µM (inactive); in assay [12] it was 91.8 µM (inactive); in assay [13], > 100 µM (inactive); in [14], > 100 µM (inactive).
With `c1ccc(-c2cnc3nc4ccccc4nc3n2)cc1`, the GI50 in assay [1] was 10 µM (inactive); in [15], 3.23 µM (inactive); in assay [2], 1.22 µM (inactive); in assay [3], 1.72 µM (inactive); in assay [16], 3.81 µM (inactive); in [4], 4.2 µM (inactive). Also, the GI50 was 1.22 µM (inactive) in [17]; 3.33 µM (inactive) in assay [18]; 0.942 µM (active) in [5]; 3.05 µM (inactive) in assay [6]; 0.826 µM (active) in assay [8]; 1.31 µM (inactive) in [10]. Besides, the GI50 was 1.16 µM (inactive) in assay [19], 3.31 µM (inactive) in assay [11], 4.29 µM (inactive) in assay [13] and 7.05 µM (inactive) in assay [14].
On to `CN(C)CCNC(=O)Cn1ccc(=O)c2c([N+](=O)[O-])cccc21`, for which the GI50 in assay [1], in [15], in assay [2], in assay [3], in [4] and in [17] was > 100 µM (inactive) throughout. Besides, the GI50 in assay [18], in assay [5], in assay [6], in [7], in assay [8] and in assay [9] was > 100 µM (inactive) throughout. The GI50 in assay [10], in assay [19], in [11], in assay [13] and in [14] was > 100 µM (inactive) in each case.
